Test results: ChEMBL document CHEMBL4359862, “Cinnamamide: An insight into the pharmacological advances and structure-activity relationships” (Eur J Med Chem, 2019)
In brackets after ≈: the same amount, converted by molar mass. Each block holds one compound with its values, some of them ahead of it.

Columns and labels:
[1] = Inhibition of LFA1/ICAM1 (unknown origin) interaction; set-up: species or system Homo sapiens
[2] = tested on: HeLa S3; test: Antiproliferative activity against human HeLaS3 cells assessed as reduction in cell viability incubated for 72 hrs by cell counter method; format: functional, cell-based; details: HeLa S3, 72 h
[3] = tested on: MCF7; test: Antiproliferative activity against human MCF7 cells assessed as reduction in cell viability incubated for 48 hrs by MTT assay; format: functional, cell-based; details: MCF7, 48 h
[4] = target: T1, Tyrosinase (Agaricus bisporus) (UniProt O42713); test: Inhibition of mushroom tyrosinase at 25 uM using L-tyrosine as substrate incubated for 30 mins relative to control
T1 sequence (whole entry): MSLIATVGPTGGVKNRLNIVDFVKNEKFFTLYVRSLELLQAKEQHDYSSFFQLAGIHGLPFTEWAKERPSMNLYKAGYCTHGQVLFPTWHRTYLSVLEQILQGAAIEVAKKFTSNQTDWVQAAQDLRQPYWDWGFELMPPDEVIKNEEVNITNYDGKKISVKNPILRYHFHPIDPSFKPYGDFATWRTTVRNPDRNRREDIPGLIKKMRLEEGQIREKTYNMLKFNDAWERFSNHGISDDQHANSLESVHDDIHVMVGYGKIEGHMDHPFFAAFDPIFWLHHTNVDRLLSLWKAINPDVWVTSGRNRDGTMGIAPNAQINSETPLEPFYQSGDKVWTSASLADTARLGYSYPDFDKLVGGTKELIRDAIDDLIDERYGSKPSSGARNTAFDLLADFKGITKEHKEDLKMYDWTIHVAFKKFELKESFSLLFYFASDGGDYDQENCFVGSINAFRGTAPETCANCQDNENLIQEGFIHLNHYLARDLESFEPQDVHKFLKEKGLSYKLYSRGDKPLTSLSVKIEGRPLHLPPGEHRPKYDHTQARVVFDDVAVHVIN

[5] = tested on: Candida albicans; test: Antifungal activity against Candida albicans assessed as reduction in fungal cell growth incubated for 48 hrs by serial dilution assay; format: functional
[6] = tested on: Escherichia coli; test: Antibacterial activity against Escherichia coli assessed as reduction in bacterial cell viability incubated for 24 hrs by serial dilution assay; format: functional
[7] = tested on: MGC-803; test: Antiproliferative activity against human MGC803 cells; format: functional, cell-based
[8] = tested on: U-937; test: Cell cycle arrest in human U937 cells assessed as increase in accumulation in G2 phase incubated for 6 hrs by propidium iodide staining based flow cytometry; format: functional; details: U-937, 6 h
[9] = tested on: DU-145; test: Antiproliferative activity against human DU145 cells assessed as reduction in cell viability incubated for 48 hrs by MTT assay; format: functional, cell-based; details: DU-145, 48 h
[10] = target: Vascular endothelial growth factor receptor 2 (Homo sapiens, UniProt P35968); test: Inhibition of VEGFR (unknown origin)
Chain of Vascular endothelial growth factor receptor 2 (P35968 whole entry): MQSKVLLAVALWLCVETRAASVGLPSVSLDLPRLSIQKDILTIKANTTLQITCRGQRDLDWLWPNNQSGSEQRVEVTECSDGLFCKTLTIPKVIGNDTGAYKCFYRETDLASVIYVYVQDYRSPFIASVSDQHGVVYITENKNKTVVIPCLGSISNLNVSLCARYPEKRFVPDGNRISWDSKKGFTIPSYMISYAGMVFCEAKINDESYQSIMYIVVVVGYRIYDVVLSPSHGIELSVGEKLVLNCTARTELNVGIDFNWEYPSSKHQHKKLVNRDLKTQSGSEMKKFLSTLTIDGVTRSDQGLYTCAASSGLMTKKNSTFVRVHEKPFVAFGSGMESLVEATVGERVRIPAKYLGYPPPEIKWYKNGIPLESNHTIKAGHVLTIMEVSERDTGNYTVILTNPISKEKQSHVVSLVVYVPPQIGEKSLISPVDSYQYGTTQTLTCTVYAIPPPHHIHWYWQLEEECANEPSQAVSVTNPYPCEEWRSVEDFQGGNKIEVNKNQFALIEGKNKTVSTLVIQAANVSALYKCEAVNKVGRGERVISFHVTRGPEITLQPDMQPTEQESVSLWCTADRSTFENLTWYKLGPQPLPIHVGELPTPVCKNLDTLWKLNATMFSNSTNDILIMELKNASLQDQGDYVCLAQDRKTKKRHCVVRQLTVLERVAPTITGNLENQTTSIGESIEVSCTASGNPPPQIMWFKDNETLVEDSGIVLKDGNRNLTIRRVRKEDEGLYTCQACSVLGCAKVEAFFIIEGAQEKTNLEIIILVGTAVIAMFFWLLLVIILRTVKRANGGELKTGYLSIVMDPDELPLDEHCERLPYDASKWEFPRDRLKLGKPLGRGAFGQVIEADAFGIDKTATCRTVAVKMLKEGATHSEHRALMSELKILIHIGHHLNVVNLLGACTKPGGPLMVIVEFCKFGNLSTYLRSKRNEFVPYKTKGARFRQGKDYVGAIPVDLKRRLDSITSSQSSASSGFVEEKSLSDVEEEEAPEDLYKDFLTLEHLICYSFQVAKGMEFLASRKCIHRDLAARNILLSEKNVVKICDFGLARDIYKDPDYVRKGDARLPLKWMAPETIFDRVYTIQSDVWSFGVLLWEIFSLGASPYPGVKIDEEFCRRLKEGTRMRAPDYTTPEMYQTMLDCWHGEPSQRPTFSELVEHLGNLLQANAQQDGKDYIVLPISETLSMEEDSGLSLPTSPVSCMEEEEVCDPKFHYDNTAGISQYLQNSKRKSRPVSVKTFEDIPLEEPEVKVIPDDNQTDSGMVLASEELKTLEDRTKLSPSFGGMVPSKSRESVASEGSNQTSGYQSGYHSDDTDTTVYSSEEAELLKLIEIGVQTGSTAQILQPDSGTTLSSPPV

[11] = target: Epidermal growth factor receptor (Homo sapiens, UniProt P00533); test: Inhibition of EGFR (unknown origin)
Chain of Epidermal growth factor receptor (P00533 whole entry): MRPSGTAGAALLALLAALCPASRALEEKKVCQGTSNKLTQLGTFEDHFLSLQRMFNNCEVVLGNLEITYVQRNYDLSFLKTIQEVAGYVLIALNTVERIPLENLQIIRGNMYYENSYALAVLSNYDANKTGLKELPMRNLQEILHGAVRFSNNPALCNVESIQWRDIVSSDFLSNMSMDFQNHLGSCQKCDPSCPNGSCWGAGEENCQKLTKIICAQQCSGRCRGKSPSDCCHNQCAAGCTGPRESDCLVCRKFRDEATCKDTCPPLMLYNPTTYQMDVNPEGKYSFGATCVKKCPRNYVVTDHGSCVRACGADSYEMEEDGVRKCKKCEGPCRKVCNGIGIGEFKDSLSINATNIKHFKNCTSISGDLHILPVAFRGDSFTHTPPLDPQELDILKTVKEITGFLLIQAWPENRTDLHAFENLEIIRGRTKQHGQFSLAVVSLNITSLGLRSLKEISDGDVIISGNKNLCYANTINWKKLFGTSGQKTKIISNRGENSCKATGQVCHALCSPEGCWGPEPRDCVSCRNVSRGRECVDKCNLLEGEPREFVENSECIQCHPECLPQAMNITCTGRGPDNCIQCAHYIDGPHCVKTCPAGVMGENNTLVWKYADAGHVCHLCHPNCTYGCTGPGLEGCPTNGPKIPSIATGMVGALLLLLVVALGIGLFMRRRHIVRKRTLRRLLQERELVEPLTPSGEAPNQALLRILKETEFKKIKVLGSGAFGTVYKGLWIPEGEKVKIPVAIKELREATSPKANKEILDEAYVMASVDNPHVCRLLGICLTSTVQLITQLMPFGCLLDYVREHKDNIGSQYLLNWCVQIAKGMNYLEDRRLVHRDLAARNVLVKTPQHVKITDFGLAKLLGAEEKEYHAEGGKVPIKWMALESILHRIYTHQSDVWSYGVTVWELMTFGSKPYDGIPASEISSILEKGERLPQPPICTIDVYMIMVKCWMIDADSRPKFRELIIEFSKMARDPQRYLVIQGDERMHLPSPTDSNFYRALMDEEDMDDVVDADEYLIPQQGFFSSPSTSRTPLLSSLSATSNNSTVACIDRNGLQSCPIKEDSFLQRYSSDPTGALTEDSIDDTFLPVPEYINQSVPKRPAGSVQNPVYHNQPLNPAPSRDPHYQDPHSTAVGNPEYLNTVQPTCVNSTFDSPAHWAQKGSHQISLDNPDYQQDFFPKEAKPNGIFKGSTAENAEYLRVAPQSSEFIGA

[12] = Inhibition of recombinant LFA1/ICAM1 (unknown origin) interaction in JY-8 cells expressing LFA1 incubated for 45 mins by fluorescence based assay; format: cell-based, Homo sapiens
[13] = tested on: Escherichia coli; test: Antibacterial activity against Escherichia coli assessed as reduction in bacterial cell viability by well plate method; format: functional
[14] = tested on: Bacillus subtilis; test: Antibacterial activity against Bacillus subtilis assessed as reduction in bacterial cell viability by well plate method; format: functional
[15] = Inhibition of recombinant LFA1/ICAM1 (unknown origin) interaction incubated for 1 hr by time resolved fluorimetry; set-up: species or system Homo sapiens
[16] = target: T2, P-selectin (Homo sapiens, UniProt P16109); test: Inhibition of P-selectin (unknown origin) incubated for 30 mins by ELISA
T2 sequence (P16109 whole entry): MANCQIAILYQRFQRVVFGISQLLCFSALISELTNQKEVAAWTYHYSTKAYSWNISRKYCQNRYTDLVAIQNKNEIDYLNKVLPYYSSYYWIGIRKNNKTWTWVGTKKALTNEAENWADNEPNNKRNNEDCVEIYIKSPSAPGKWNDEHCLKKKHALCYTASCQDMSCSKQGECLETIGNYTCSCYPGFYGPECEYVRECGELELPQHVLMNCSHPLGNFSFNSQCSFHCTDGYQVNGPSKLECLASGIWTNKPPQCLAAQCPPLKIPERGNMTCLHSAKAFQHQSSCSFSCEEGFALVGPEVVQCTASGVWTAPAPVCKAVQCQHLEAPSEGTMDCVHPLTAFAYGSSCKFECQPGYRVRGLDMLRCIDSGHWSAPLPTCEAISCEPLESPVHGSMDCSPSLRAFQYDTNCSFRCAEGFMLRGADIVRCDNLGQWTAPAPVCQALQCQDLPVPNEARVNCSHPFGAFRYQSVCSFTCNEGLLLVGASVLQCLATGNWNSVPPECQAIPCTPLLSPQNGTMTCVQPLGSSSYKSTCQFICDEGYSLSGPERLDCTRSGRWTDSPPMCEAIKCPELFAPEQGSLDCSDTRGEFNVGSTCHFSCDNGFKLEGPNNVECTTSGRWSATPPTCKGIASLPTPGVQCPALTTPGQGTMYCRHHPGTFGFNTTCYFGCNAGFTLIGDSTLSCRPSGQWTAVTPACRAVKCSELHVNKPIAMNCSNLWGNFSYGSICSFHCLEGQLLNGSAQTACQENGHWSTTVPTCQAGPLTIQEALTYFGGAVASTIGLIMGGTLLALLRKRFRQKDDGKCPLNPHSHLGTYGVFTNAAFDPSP

Structure (SMILES): COc1ccc(/C=C/C(=O)N2C[C@H]3C[C@@]34C2=CC(=O)c2[nH]c(C)c(Cl)c24)cc1
IC50 [2]: 0.029 nM

Structure (SMILES): CC(C)(C)NC(=O)/C=C/c1ccccc1 [N-TERT-BUTYLCINNAMAMIDE]
IC50 [3]: 13400 nM

Structure (SMILES): O=C(/C=C/c1ccccc1)Nc1ccc([N+](=O)[O-])cc1
log(1/MIC) [5]: 2.43 | log(1/MIC) [6]: 2.43

Structure (SMILES): CCCc1n[nH]c(C(N)=O)c1NC(=O)/C=C/c1ccccc1
IC50 [7]: 3440 nM

Structure (SMILES): O=C(/C=C/c1ccc(O)cc1O)Nc1ccccc1
inhibition [4]: 93.7%

Structure (SMILES): COc1cccc(/C=C/C(=O)Nc2cc(OC)c(OC)c(OC)c2)c1
IC50 [8]: 8000 nM

Structure (SMILES): C=CCOc1cc(/C=C/C(=O)Nc2cc(OC)c(OC)c(OC)c2)ccc1N/C=C\C(=O)c1ccc(OC)c([N+](=O)[O-])c1
IC50 [9]: 8910 nM

Structure (SMILES): COc1cc(/C=C/C(=O)Nc2cc3c(Nc4ccc(F)c(Cl)c4)ncnc3cc2O[C@@H]2CCOC2)cc(OC)c1OC
IC50 [10]: 3.6 nM | IC50 [11]: 9 nM

Structure (SMILES): O=C(/C=C/c1ccc(O)cc1O)NC1CCCC1
inhibition [4]: 94.1%

Structure (SMILES): CN(C)C(=O)/C=C/c1ccccc1
log(1/MIC) [5]: 2.43 | log(1/MIC) [6]: 2.43

Structure (SMILES): COc1ccc(/C=C/C(=O)N2CCOCC2)c(OC)c1OC
MIC [13]: 6.12 µM (≈ 1.88 µg/mL) | MIC [14]: 6.12 µM (≈ 1.88 µg/mL)

Structure (SMILES): CCCCCCCCCCCCCCCCNC(=O)/C=C/c1ccc(-c2[nH]c(-c3ccc(C4=NOC(C(=O)O)C4)cc3)nc2-c2ccc(/C=C/C(=O)O)cc2)cc1 (centres undefined)
IC50 [16]: 300 nM

The remaining lines, values ahead:

IC50 [1]: 40 nM
Structure (SMILES): CC(=O)N1CCN(C(=O)/C=C/c2ccc(Sc3ccc4c(c3)OCCO4)c(Cl)c2)CC1

inhibition [4]: 94.4%
Structure (SMILES): CN1CCN(C(=O)/C=C/c2ccc(O)cc2O)CC1

log(1/MIC) [5]: 2.43 | log(1/MIC) [6]: 2.43
Structure (SMILES): O=C(/C=C/c1ccccc1)N1CCCCC1

IC50 [12]: 0.5 nM
Structure (SMILES): O=C(O)C1CCN(C(=O)/C=C/c2ccc(Sc3ccc4c(c3)OCCO4)c(C(F)(F)F)c2C(F)(F)F)CC1

inhibition [4]: 95.7%
Structure (SMILES): O=C(/C=C/c1ccc(O)cc1O)N1CCOCC1

IC50 [12]: 0.1 nM
Structure (SMILES): COc1ccccc1Sc1ccc(/C=C/C(=O)N2CCC(C(=O)O)CC2)c(C(F)(F)F)c1C(F)(F)F

IC50 [15]: 35 nM
Structure (SMILES): CC(=O)N1CCN(C(=O)/C=C/c2ccc(Sc3ccccc3C(C)C)c([N+](=O)[O-])c2)CC1 [A-286982]
